Data on 18 compounds can be found in patent US12029739B2, “SHP2 inhibitor and use thereof” (KANAPH THERAPEUTICS INC., priority 2021, dated 2024).

pIC50: −log10 of the molar value. Where two headings read alike, the source gives them in different places.

The target of experiment [1] is T1, SHP2 (full length) (Homo sapiens, UniProt Q06124).
T1 construct: SHP2 (full length, diluted to 100 pM final concentration in reaction buffer, BPS bioscience, US); purchased BPS bioscience, US
T1 sequence (Q06124 1-593): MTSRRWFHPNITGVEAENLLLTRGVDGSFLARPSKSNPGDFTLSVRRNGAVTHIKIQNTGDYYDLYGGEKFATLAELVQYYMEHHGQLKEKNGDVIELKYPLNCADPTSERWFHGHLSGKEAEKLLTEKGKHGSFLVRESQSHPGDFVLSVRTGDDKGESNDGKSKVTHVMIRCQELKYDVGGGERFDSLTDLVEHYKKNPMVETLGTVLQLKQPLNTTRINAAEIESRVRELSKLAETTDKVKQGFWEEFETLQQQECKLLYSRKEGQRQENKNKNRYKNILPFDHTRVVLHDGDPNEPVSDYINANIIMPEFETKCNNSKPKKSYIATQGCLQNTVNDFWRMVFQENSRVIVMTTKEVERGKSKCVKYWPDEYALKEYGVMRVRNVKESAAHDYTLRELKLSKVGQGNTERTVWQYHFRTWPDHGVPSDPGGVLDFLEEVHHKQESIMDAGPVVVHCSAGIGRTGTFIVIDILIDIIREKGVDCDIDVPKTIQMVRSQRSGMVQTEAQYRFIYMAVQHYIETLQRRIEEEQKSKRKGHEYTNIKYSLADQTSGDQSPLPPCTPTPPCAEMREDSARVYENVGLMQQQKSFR
As to the kind of experiment: Phosphatase assay (PTPase assay) with DiFMUP substrate. The class given is biochemical. As to conditions: SHP2 activated with SHP2 activating peptide; DiFMUP 80 μM, 2 hours; fluorescence; read-out: IC50 (PTPase aS say).

Experiment [2] concerns phospho-ERK in MIA PaCa2 or H358 cells. As to the kind of experiment: Phospho-ERK assay (AlphaLisa). The class given is cell-based. The settings on record: MIA PaCa2 or H358 cells, compound incubated 1.5 hours, read-out: IC50 (p-ERK).

As usually defined, the pIC50 is −log10 of the IC50, conventionally taken in molar units. Turning to `N[C@@H]1c2cccnc2CC12CCN(c1cnc(Sc3ccc4ncn(CC5CCOC5)c(=O)c4c3Cl)cn1)CC2` (stereo partly drawn) [Example 107, 6-((5-((S)-5-amino-5,7-dihydrospiro[yclopenta[b]pyridine-6,4′-piperidin]-1′-yl)pyrazin-2-yl]thio)-5-chloro-3-((tetrahydrofuran-3-yl)methyl)quinazolin-4(3H)-one], the negative logarithm of the IC50 (pIC50) in experiment [1] is above 8.52; in experiment [2] (1.5 h) it was above 7.35.
As for `C[C@@H]1OCC2(CCN(c3cnc(Sc4ccc5ncn(CC(O)CO)c(=O)c5c4Cl)cn3)CC2)[C@@H]1N` (stereo partly drawn) [Example 122, 6-((5-((3S,4S)-4-amino-3-methyl-2-oxa-8-azaspiro[4,5]decan-8-yl)pyrazin-2-yl)thio)-5-chloro-3-(2,3-dihydroxypropyl)quinazolin-4(3H)-one], the pIC50 in experiment [1] is above 8.52; in experiment [2], above 7.35.
For the compound `C[C@@H]1OCC2(CCN(c3cnc(Sc4ccc5ncn(CC6CCOC6)c(=O)c5c4Cl)cn3)CC2)[C@@H]1N` (stereo partly drawn) [Example 61, 6-((5-((3S,4S)-4-amino-3-methyl-2-oxa-8-azaspiro[4.5]decan-8-yl)pyrazin-2-yl)thio)-5-chloro-3-((tetrahydrofuran-3-yl)methyl)quinazolin-4(3H)-one], the pIC50 in experiment [1] was above 8.52; in experiment [2] (1.5 h) it was above 7.35.
Regarding `N[C@H]1c2scnc2CC12CCN(c1cnc(Sc3ccc4ncn(CC5CCOCC5)c(=O)c4c3Cl)cn1)CC2` [Example 148, 6-[5-[(6R)-6-aminospiro[4,6-dihydrocyclopenta[d]thiazole-5,4′piperidin]1′-yl]-pyrazin-2-yl]sulfanyl-5-chloro-3-(tetrahydropyran-4-ylmethyl)quinazolin-4-one], the pIC50 in experiment [1] was 7.00 to 8.52; in experiment [2] (1.5 h) it was 5.82 to 7.35.
In the same order, the values of `COC(C)Cn1cnc2ccc(Sc3cnc(N4CCC5(CC4)CO[C@@H](C)[C@H]5N)cn3)c(Cl)c2c1=O` (stereo partly drawn) [Example 120] are above 8.52 and above 7.35.
As to `CC(=O)Cn1cnc2ccc(Sc3cnc(N4CCC5(CC4)CO[C@@H](C)[C@H]5N)cn3)c(Cl)c2c1=O` [Example 92, 6-((5-((3S,4S)-4-amino-3-methyl-2-oxa-8-azaspiro[4.5]decan-8-yl)pyrazin-2-yl)thio)-5-chloro-3-(2-oxopropyl)quinazolin-4(3H)-one], the pIC50 is above 8.52 in experiment [1] and above 7.35 in experiment [2] (1.5 h).
With `CCOC(=O)c1cccc(Sc2c(N)nc(N3CCC(C)(N)CC3)n(C)c2=O)c1Cl` [Example 2, ethyl 3-((4-amino-2-(4-amino-4-methylpiperidin-1-yl)-1-methyl-6-oxo-1,6-dihydropyrimidin-5-yl)thio)-2-chlorobenzoate], the values for the pIC50 in experiment [1] and in experiment [2] were below 7.00 and 5.82 to 7.35, respectively.
As to `C[C@@H]1OCC2(CCN(c3cnc(Sc4ccc5ncn(Cc6cncnc6)c(=O)c5c4Cl)cn3)CC2)[C@@H]1N` [Example 46, 6-((5-((3S,4S)-4-amino-3-methyl-2-oxa-8-azaspiro[4.5]decan-8-yl)pyrazin-2-yl)thio)-5-chloro-3-(pyrimidin-5-ylmethyl)quinazolin-4(3H)-one], the pIC50 in experiment [1] was 7.00 to 8.52; in experiment [2] (1.5 h) it was above 7.35.
The matching figures for `CC(C)(O)Cn1cnc2ccc(Sc3cnc(N4CCC5(CC4)Cc4scnc4[C@@H]5N)cn3)c(Cl)c2c1=O` [Example 152, 6-[5-[(4R)-4-aminospiro[4,6-dihydrocyclopenta[d]thiazole-5,4′-piperidin]-1′-yl]pyrazin-2-yl]sulfanyl-5-chloro-3-(2-hydroxy-2-methyl-propyl)quinazolin-4-one]: 7.00 to 8.52 and 5.82 to 7.35.
Consider `COc1ccc(Cn2cnc3ccc(Sc4cnc(N5CCC6(CC5)CO[C@@H](C)[C@H]6N)cn4)c(Cl)c3c2=O)c(F)c1` [Example 72, 6-((5-((3S,4S)-4-amino-3-methyl-2-oxa-8-azaspiro[4.5]decan-8-yl)pyrazin-2-yl)thio)-5-chloro-3-(2-fluoro-4-methoxybenzyl)quinazolin-4(3H)-one], for which the pIC50 is above 8.52 in experiment [1] and above 7.35 in experiment [2] (1.5 h).
For the compound `C[C@@H]1OCC2(CCN(c3cnc(Sc4ccc5c(=O)n(Cc6ccccc6)cnc5c4Cl)cn3)CC2)[C@@H]1N` [Example 132], the pIC50 in experiment [1] is above 8.52; in experiment [2] (1.5 h), above 7.35.
Take `C[C@@H]1OCC2(CCN(c3cnc(Sc4ccc5ncn(Cc6nc7ccccc7[nH]6)c(=O)c5c4Cl)cn3)CC2)[C@@H]1N` [Example 37, 3-((1H-benzo[d]imidazol-2-yl)methyl)-6-((5-((3S,4S)-4-amino-3-methyl-2-oxa-8-azaspiro[4.5]decan-8-yl)pyrazin-2-yl)thio)-5-chloroquinazolin-4(3H)-one]: the results for the negative-log IC50 (pIC50) in experiment [1] and in experiment [2] (1.5 h) were above 8.52 and above 7.35, respectively.
As to `CC(C)OCCn1cnc2ccc(Sc3cnc(N4CCC5(CC4)CO[C@@H](C)[C@H]5N)cn3)c(Cl)c2c1=O` [Example 116, 6-((5-(3S,4S)-4-amino-3-methyl-2-oxa-8-azaspiro[4,5]decan-8-yl)pyrazin-2-yl)thio)-5-chloro-(3-(2-isopropoxyethyl)quinazolin-4(3H)-one], the pIC50 was above 8.52 in experiment [1] and above 7.35 in experiment [2] (1.5 h).
`CC(c1ccccc1)n1cnc2ccc(Sc3cnc(N4CCC5(CC4)CO[C@@H](C)[C@H]5N)cn3)c(Cl)c2c1=O` (stereo partly drawn) [Example 32, 6-((5-((3S,4S)-4-amino-3-methyl-2-oxa-8-azaspiro[4.5]decan-8-yl)pyrazin-2-yl)thio)-5-chloro-3-(1-phenylethyl)quinazolin-4(3H)-one]: the pIC50 is above 8.52 in experiment [1] and 5.82 to 7.35 in experiment [2] (1.5 h).
As for `C[C@@H]1OCC2(CCN(c3cnc(Sc4ccc5ncn(Cc6cnccn6)c(=O)c5c4Cl)cn3)CC2)[C@@H]1N` [Example 44, 6-((5-((3S,4S)-4-amino-3-methyl-2-oxa-8-azaspiro[4.5]decan-8-yl)pyrazin-2-yl)thio)-5-chloro-3-(pyrazin-2-ylmethyl)quinazolin-4(3H)-one], the pIC50 in experiment [1] is above 8.52; in experiment [2] (1.5 h), above 7.35.
As for `COCCn1cnc2ccc(Sc3ncc(N4CCC5(CC4)CO[C@@H](C)[C@H]5N)nc3N)c(Cl)c2c1=O` [Example 143, 6-((3-amino-5-((3S,4S)-4-amino-3-methyl-2-oxa-8-azaspiro[4.5]decan 8-yl)pyrazin-2-yl)thio)-5-chloro-3-(2-methoxyethyl)quinazolin-4(3H)-one], the pIC50 in experiment [1] was above 8.52; in experiment [2] (1.5 h), above 7.35.
Regarding `C[C@@H]1OCC2(CCN(c3cnc(Sc4ccc5nc(OC6CCOC6)n(C)c5c4Cl)cn3)CC2)[C@@H]1N` (stereo partly drawn) [Example 129, (3S,4S)-8-(5-((7-chloro-1-methyl-2-((tetrahydrofuran-3-yl)oxy)-1H-benzo[d]imidazol-6-yl)thio)pyrazin-2-yl)-3-methyl-2-oxa-8-azaspiro[4.5]decan-4-amine], the pIC50 was above 8.52 in experiment [1] and above 7.35 in experiment [2] (1.5 h).
On to `C[C@@H]1OCC2(CCN(c3cnc(Sc4ccc5ncn(CC(C)(C)O)c(=O)c5c4Cl)cn3)CC2)[C@@H]1N` [Example 81, 6-((5-((3S,4S)-4-amino-3-methyl-2-oxa-8-azaspiro[4.5]decan-8-yl)pyrazin-2-yl)thio)-5-chloro-3-(2-hydroxy-2-methylpropyl)quinazolin-4(3H)-one], for which the pIC50 was above 8.52 in experiment [1] and above 7.35 in experiment [2] (1.5 h).
